Test results published in patent US9708314B2, “Heterocyclic amide compound” (NISSAN CHEMICAL INDUSTRIES, LTD., priority 2013, dated 2017).

Tests used:
Assay type in all cases: in vivo
Cyperus difformis = assay: Test Example 3: herbicidal effect by application to foliage (Wagner pot, water depth 0.1-0.5 cm); conditions: Nineteenth Table, application to foliage
Outline: (§1)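 Grading uses six bands of herbicidal ratio, from 0 (≤5%, almost no effect) to 5 (≥90%, almost completely withered). Treatment was a stem-and-leaf spray of diluted emulsion at a fixed g/ha on 14-day-old plants; evaluation after three weeks.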

[1] = tested on: Echinochloa crus-galli var. crus-galli; assay: as above; conditions: Nineteenth Table, application to foliage
Outline: as §1

Leptochloa chinensis = assay: as above; conditions: Nineteenth Table, application to foliage
Outline: as §1

Abutilon theophrasti = assay: Test Example 4: herbicidal effect by application to foliage (diluvial soil, plastic box)
Outline: (§2)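 Scores run from 0 (herbicidal ratio ≤5%) to 5 (≥90%, almost fully withered) and were assessed three weeks after foliar spraying. Seedlings had been raised for 14 days at 25-30° C in sterilized diluvial soil before treatment, with the emulsion diluted in water to the stated g/ha dose.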

Alopecurus myosuroides = assay: as above
Outline: as §2

Amaranthus retroflexus = assay: as above
Outline: as §2

Apera spica-venti. = assay: as above
Outline: as §2

Avena fatua = assay: as above
Outline: as §2

Chenopodium album = assay: as above
Outline: as §2

Digitaria ciliaris = assay: as above
Outline: as §2

[2] = tested on: Echinochloa crus-galli var. crus-galli; assay: as above
Outline: as §2

Galium spurium = assay: as above
Outline: as §2

Lolium multiflorum Lam. = assay: as above
Outline: as §2

Setaria viridis = assay: as above
Outline: as §2

Stellaria media = assay: as above
Outline: as §2

Veronica persica = assay: as above
Outline: as §2

[3] = tested on: Beta vulgaris ssp. vulgaris; assay: Test Example 4: effect on crop by application to foliage (diluvial soil, plastic box)
Outline: as §2

Brassica campestris L. = assay: as above
Outline: as §2

Glycine max = assay: as above
Outline: as §2

Triticum aestivum = assay: as above
Outline: as §2

Zea mays = assay: as above
Outline: as §2

[4] = tested on: directly sowed Oryza sativa; assay: as above
Outline: as §2

[5] = application herbicide amount 320 g/ha
[6] = application to foliage, 320 g/ha
[7] = application herbicide amount 200 g/ha
[8] = application to foliage, application herbicide amount 320 g/ha

`CC(C)c1nc2c(C(=O)Nc3nnnn3C)ccc(C(F)(F)F)n2n1` [7-002] was tested, and the “E (herbicidal effect grade)” value (Cyperus difformis; [5]) was 4 (Herbicidal ratio of 70% or more and less than 90%), the “H (herbicidal effect grade)” value [1, 5] was 4 (Herbicidal ratio of 70% or more and less than 90%) and the “D (herbicidal effect grade)” value (Leptochloa chinensis; [5]) was 4 (Herbicidal ratio of 70% or more and less than 90%). The “herbicidal effect, M (Abutilon theophrasti)” value (Abutilon theophrasti; [6]) was 3 (Herbicidal ratio of 40% or more and less than 70%), the “herbicidal effect, J (Alopecurus myosuroides)” value (Alopecurus myosuroides; [6]) was 0 (Herbicidal ratio of 5% or less (almost no effect)) and the “herbicidal effect, N (Amaranthus retroflexus)” value (Amaranthus retroflexus; [6]) was 4 (Herbicidal ratio of 70% or more and less than 90%). For the same compound, the “herbicidal effect, L (Apera spica-venti.)” value (Apera spica-venti.; [6]) was 0 (Herbicidal ratio of 5% or less (almost no effect)), the “herbicidal effect, I (Avena fatua)” value (Avena fatua; [6]) was 1 (Herbicidal ratio of 5% or more and less than 20%) and the “herbicidal effect, O (Chenopodium album)” value (Chenopodium album; [6]) was 5 (Herbicidal ratio of 90% or more (almost completely withered)). The “herbicidal effect, F (Digitaria ciliaris)” value (Digitaria ciliaris; [6]) was 3 (Herbicidal ratio of 40% or more and less than 70%), the “herbicidal effect, H (Echinochloa crus-galli var. crus-galli)” value [2, 6] was 4 (Herbicidal ratio of 70% or more and less than 90%) and the “herbicidal effect, Q (Galium spurium)” value (Galium spurium; [6]) was 3 (Herbicidal ratio of 40% or more and less than 70%). The “herbicidal effect, K (Lolium multiflorum Lam.)” value (Lolium multiflorum Lam.; [6]) was 0 (Herbicidal ratio of 5% or less (almost no effect)), the “herbicidal effect, G (Setaria viridis)” value (Setaria viridis; [6]) was 2 (Herbicidal ratio of 20% or more and less than 40%) and the “herbicidal effect, P (Stellaria media)” value (Stellaria media; [6]) was 4 (Herbicidal ratio of 70% or more and less than 90%). For the same compound, the “herbicidal effect, R (Veronica persica)” value (Veronica persica; [6]) was 3 (Herbicidal ratio of 40% or more and less than 70%), the “effect on crop, f (Beta vulgaris ssp. vulgaris)” value [3, 6] was 4 (Herbicidal ratio of 70% or more and less than 90%) and the “effect on crop, g (Brassica campestris L.)” value (Brassica campestris L.; [6]) was 3 (Herbicidal ratio of 40% or more and less than 70%). For the same compound, the “effect on crop, c (Glycine max)” value (Glycine max; [6]) was 0 (Herbicidal ratio of 5% or less (almost no effect)), the “effect on crop, e (Triticum aestivum)” value (Triticum aestivum; [6]) was 0 (Herbicidal ratio of 5% or less (almost no effect)) and the “effect on crop, b (Zea mays)” value (Zea mays; [6]) was 0 (Herbicidal ratio of 5% or less (almost no effect)). The “effect on crop, d (directly sowed Oryza sativa)” value [4, 6] was 2 (Herbicidal ratio of 20% or more and less than 40%).
`CC(C)c1nnc2c(C(=O)Nc3nnnn3C)ccc(C(F)(F)F)n12` [2-003] was tested, and the “E (herbicidal effect grade)” value (Cyperus difformis; [7]) was 5 (Herbicidal ratio of 90% or more (almost completely withered)), the “H (herbicidal effect grade)” value [1, 7] was 5 (Herbicidal ratio of 90% or more (almost completely withered)) and the “D (herbicidal effect grade)” value (Leptochloa chinensis; [7]) was 5 (Herbicidal ratio of 90% or more (almost completely withered)). For the same compound, the “M: herbicidal effect on Abutilon theophrasti” value (Abutilon theophrasti; [8]) was 5 (Herbicidal ratio of 90% or more (almost completely withered)), the “J: herbicidal effect on Alopecurus myosuroides” value (Alopecurus myosuroides; [8]) was 3 (Herbicidal ratio of 40% or more and less than 70%) and the “N: herbicidal effect on Amaranthus retroflexus” value (Amaranthus retroflexus; [8]) was 5 (Herbicidal ratio of 90% or more (almost completely withered)). The “L: herbicidal effect on Apera spica-venti.” value (Apera spica-venti.; [8]) was 5 (Herbicidal ratio of 90% or more (almost completely withered)), the “I: herbicidal effect on Avena fatua” value (Avena fatua; [8]) was 3 (Herbicidal ratio of 40% or more and less than 70%) and the “O: herbicidal effect on Chenopodium album” value (Chenopodium album; [8]) was 5 (Herbicidal ratio of 90% or more (almost completely withered)). The “F: herbicidal effect on Digitaria ciliaris” value (Digitaria ciliaris; [8]) was 5 (Herbicidal ratio of 90% or more (almost completely withered)), the “H: herbicidal effect on Echinochloa crus-galli var. crus-galli” value [2, 8] was 5 (Herbicidal ratio of 90% or more (almost completely withered)) and the “Q: herbicidal effect on Galium spurium” value (Galium spurium; [8]) was 4 (Herbicidal ratio of 70% or more and less than 90%). The “K: herbicidal effect on Lolium multiflorum Lam.” value (Lolium multiflorum Lam.; [8]) was 3 (Herbicidal ratio of 40% or more and less than 70%), the “G: herbicidal effect on Setaria viridis” value (Setaria viridis; [8]) was 5 (Herbicidal ratio of 90% or more (almost completely withered)) and the “P: herbicidal effect on Stellaria media” value (Stellaria media; [8]) was 5 (Herbicidal ratio of 90% or more (almost completely withered)). For the same compound, the “R: herbicidal effect on Veronica persica” value (Veronica persica; [8]) was 5 (Herbicidal ratio of 90% or more (almost completely withered)), the “f: effect on crop, Beta vulgaris ssp. vulgaris” value [3, 8] was 5 (Herbicidal ratio of 90% or more (almost completely withered)) and the “g: effect on crop, Brassica campestris L.” value (Brassica campestris L.; [8]) was 5 (Herbicidal ratio of 90% or more (almost completely withered)). For the same compound, the “d: effect on crop, Glycine max” value (Glycine max; [8]) was 4 (Herbicidal ratio of 70% or more and less than 90%), the “e: effect on crop, Triticum aestivum” value (Triticum aestivum; [8]) was 3 (Herbicidal ratio of 40% or more and less than 70%) and the “c: effect on crop, Zea mays” value (Zea mays; [8]) was 1 (Herbicidal ratio of 5% or more and less than 20%). The “b: effect on crop, directly sowed Oryza sativa” value [4, 8] was 4 (Herbicidal ratio of 70% or more and less than 90%).
With `CCCSc1nnc2c(C(=O)Nc3nnnn3C)ccc(C(F)(F)F)n12` [2-068] the “E (herbicidal effect grade)” value (Cyperus difformis; [5]) was 5 (Herbicidal ratio of 90% or more (almost completely withered)), the “H (herbicidal effect grade)” value [1, 5] was 5 (Herbicidal ratio of 90% or more (almost completely withered)) and the “D (herbicidal effect grade)” value (Leptochloa chinensis; [5]) was 5 (Herbicidal ratio of 90% or more (almost completely withered)). For the same compound, the “M (Abutilon theophrasti) herbicidal effect grade” value (Abutilon theophrasti; foliage application, 320 g/ha) was 5 (Herbicidal ratio of 90% or more (almost completely withered)), the “J (Alopecurus myosuroides) herbicidal effect grade” value (Alopecurus myosuroides; foliage application, 320 g/ha) was 2 (Herbicidal ratio of 20% or more and less than 40%) and the “N (Amaranthus retroflexus) herbicidal effect grade” value (Amaranthus retroflexus; foliage application, 320 g/ha) was 5 (Herbicidal ratio of 90% or more (almost completely withered)). The “L (Apera spica-venti.) herbicidal effect grade” value (Apera spica-venti.; foliage application, 320 g/ha) was 3 (Herbicidal ratio of 40% or more and less than 70%), the “I (Avena fatua) herbicidal effect grade” value (Avena fatua; foliage application, 320 g/ha) was 3 (Herbicidal ratio of 40% or more and less than 70%) and the “O (Chenopodium album) herbicidal effect grade” value (Chenopodium album; foliage application, 320 g/ha) was 5 (Herbicidal ratio of 90% or more (almost completely withered)). The “F (Digitaria ciliaris) herbicidal effect grade” value (Digitaria ciliaris; foliage application, 320 g/ha) was 5 (Herbicidal ratio of 90% or more (almost completely withered)), the “H (Echinochloa crus-galli var. crus-galli) herbicidal effect grade” value ([2]; foliage application, 320 g/ha) was 5 (Herbicidal ratio of 90% or more (almost completely withered)) and the “Q (Galium spurium) herbicidal effect grade” value (Galium spurium; foliage application, 320 g/ha) was 4 (Herbicidal ratio of 70% or more and less than 90%). For the same compound, the “K (Lolium multiflorum Lam.) herbicidal effect grade” value (Lolium multiflorum Lam.; foliage application, 320 g/ha) was 2 (Herbicidal ratio of 20% or more and less than 40%), the “G (Setaria viridis) herbicidal effect grade” value (Setaria viridis; foliage application, 320 g/ha) was 5 (Herbicidal ratio of 90% or more (almost completely withered)) and the “P (Stellaria media) herbicidal effect grade” value (Stellaria media; foliage application, 320 g/ha) was 5 (Herbicidal ratio of 90% or more (almost completely withered)). For the same compound, the “R (Veronica persica) herbicidal effect grade” value (Veronica persica; foliage application, 320 g/ha) was 5 (Herbicidal ratio of 90% or more (almost completely withered)), the “f (Beta vulgaris ssp. vulgaris) effect on crop grade” value ([3]; foliage application, 320 g/ha) was 5 (Herbicidal ratio of 90% or more (almost completely withered)) and the “g (Brassica campestris L.) effect on crop grade” value (Brassica campestris L.; foliage application, 320 g/ha) was 4 (Herbicidal ratio of 70% or more and less than 90%). For the same compound, the “c (Glycine max) effect on crop grade” value (Glycine max; foliage application, 320 g/ha) was 3 (Herbicidal ratio of 40% or more and less than 70%), the “e (Triticum aestivum) effect on crop grade” value (Triticum aestivum; foliage application, 320 g/ha) was 2 (Herbicidal ratio of 20% or more and less than 40%) and the “b (Zea mays) effect on crop grade” value (Zea mays; foliage application, 320 g/ha) was 5 (Herbicidal ratio of 90% or more (almost completely withered)). The “d (directly sowed Oryza sativa) effect on crop grade” value ([4]; foliage application, 320 g/ha) was 4 (Herbicidal ratio of 70% or more and less than 90%).
